# Patent US6703207B2, “Method of screening substances with a glycidyl methacrylate covered styrene-glycidyl methacrylate polymer” (priority 1996, dated 2004)
# Experiments:
# NF-κB = test: Transfection of NF-κB-regulated luciferase plasmid into Jurkat cells; type: cell-based; conditions: luciferase genes regulated by NF-κB
# Text: The functions of NH2-E3330 were compared with those of E3330 with respect to transcriptional activation abilities of NF-κB.
# [1] = target: T1, Ref-1 amino acid sequence 72 a.a. to 88 a.a. (Homo sapiens, UniProt P27695); test: Binding of Ref-1 fragment 72 a.a. to 88 a.a. to E3330-immobilized particles
# T1 construct: made in house
# [2] = target: T2, Ref-1 acting on p50/p50 homo-dimer or p65/p50 hetero-dimer (Homo sapiens, UniProt P27695); test: Gel-shift assay with recombinant p65 and p50 subunits; type: biochemical
# T2 construct: His6 (pET14b) (N); made in house; p50 and p65: baculovirus expression system
# T2 sequence (P27695 whole entry): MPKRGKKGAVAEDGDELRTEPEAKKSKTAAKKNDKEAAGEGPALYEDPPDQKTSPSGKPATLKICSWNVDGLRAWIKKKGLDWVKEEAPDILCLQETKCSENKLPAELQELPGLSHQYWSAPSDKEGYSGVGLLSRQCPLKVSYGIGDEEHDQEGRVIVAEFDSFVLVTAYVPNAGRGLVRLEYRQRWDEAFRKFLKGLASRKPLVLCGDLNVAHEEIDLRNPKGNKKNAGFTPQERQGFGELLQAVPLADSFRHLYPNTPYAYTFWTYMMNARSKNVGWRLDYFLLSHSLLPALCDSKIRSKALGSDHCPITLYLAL
# [3] = target: T3, Ref-1 redox activity on NF-κB (Homo sapiens, UniProt P27695); test: Gel-shift assay of NF-κB DNA binding, NF-κB partially purified from Jurkat cells; type: biochemical
# T3 construct: His6 (pET14b) (N); made in house; NF-κB: partially purified from Jurkat cells
# T3 sequence (P27695 whole entry): as above
# Description: Prior to the conduction of the investigation, there are some considerations. […] There are two cases; one is an oxidized condition where these cystine residues are bound to each other through an S-S bond; and the other one is a reduced condition where they are individually existing with an SH-group. Therefore, NF-κB was treated with dithiothreitol (DTT) that is known as a reductant to make the state of NF-κB to be reduction.
# Ref-1 [4] = target: T4, Ref-1 (Homo sapiens, UniProt P27695); test: AP nuclease activity of recombinant Ref-1 on AP plasmid DNA; type: biochemical; conditions: supercoiled AP plasmid DNA to open circular
# T4 construct: His6 (pET14b) (N); made in house
# T4 sequence (P27695 whole entry): as above
# Description: First, concerning AP nuclease activity, the plasmid pBluescript SK+DNA (50 μg) was treated with 50 mM sodium citrate (pH 3.5) at 60° C. for 15 minutes, followed by dialysis in 50 mM Tris-HCl (pH 7.4) at 4° C. for about 24 hours.
# [5] = test system: proteins with a molecular weight of about 60, 38, and 27 kDa; test: Isolation and competition with E3330-immobilized SG-EGDE particles, Jurkat nuclear extract; type: binding; conditions: 1M KCl eluate
# Description: From the purification using P.1, there was not observed any specific protein band specifically eluted from E3330-immobilized particles.
# The identification of the specific proteins were conducted by electrophoresis using SDS-PAGE.
# [6] = target: protein with a molecular weight of about 38 kDa (Ref-1) (Homo sapiens, UniProt P27695); test: Isolation and competitive binding-inhibition with E3330-immobilized SG-EGDE particles, Jurkat cytoplasmic P.5 fraction
# Sequence of protein with a molecular weight of about 38 kDa (Ref-1) (P27695 whole entry): as above
# Solubility in water = type: physicochemical
# [7] = target: recombinant protein of Ref-1 (Homo sapiens, UniProt P27695); test: Binding of recombinant Ref-1 to E3330-immobilized particles
# Sequence of recombinant protein of Ref-1 (P27695 whole entry): as above
# Ref-1 [8] = target: T4, Ref-1; test: Far Western method using 14C-labeled E3330; type: binding
# [9] = test system: protein with a molecular weight of about 170 kDa; test: Isolation and competition with DQ2511-immobilized particles, lysate of rat DRG cell; type: binding; conditions: concentrated crude lysate of rat DRG cell
# Description: Microspheres and the concentrated crude lysate of rat DRG cell were mixed and centrifuged to separate substances binding to DQ2511 which was immobilized on particles from the mixture. The procedures of binding, washing and detection of protein were performed as described above. […] In the above procedure, about 10 ng of 170 kDa DQ2511-binding protein was obtained from 1 mg of the DQ2511-immobilized SG-EGDE particles.
# [10] = test system: protein with a molecular weight of about 110 kDa; test: Isolation and competition with DQ2511-immobilized particles, HeLa cytoplasmic fraction; type: binding; conditions: 1.0 M KCl eluate
# Description: To these washed DQ2511-not-immobilized SG-EGDE particles and DQ2511-immobilized-SG-EGDE particles, 1 ml of the diluted cytoplasmic fraction was added and mixed. […] The wash solution and eluate solutions were stored at −80° C.
# [11] = test system: protein with a molecular weight of about 30 kDa; test: Isolation and competition with H-9-immobilized SG-EGDE particles, HeLa cell nuclear extracts; type: binding; conditions: for elution of the 30 kDa protein from H-9-immobilized particles by free drug: elution with 3 mM drug; for yield of the 30 kDa protein in competition experiment: free drug added simultaneously
# Description: HeLa cell nuclear extracts (NE) were prepared according to the method as described previously (Dignam, J. D., Lebovitz, R. M. and Roeder, R. G. (1983). Accurate transcription by RNA pol II in a soluble extracts from isolated mammalian nucleic. Nucleic Acids Res 11. 1475-1489).
smiles,measurement,setting,value
CCCCCCCCC/C(=C\C1=C(C)C(=O)C(OC)=C(OC)C1=O)C(=O)O [E3330],transcriptional activation abilities of NF-κB,NF-κB,reduced
same,binding of recombinant protein possessing only 72 a.a. to 88 a.a. of Ref-1,[1],confirmation of its binding ability against E3330
same,enhancement of DNA-binding ability of p50/p50 homo-dimer or p65/p50 hetero-dimer by Ref-1,[2],reduced
same,enhancement of the DNA-binding activity of NF-κB by Ref-1,[3],reduced
same,increase in the DNA-binding activity of NF-κB by DTT,[3],did not inhibit
same,AP nuclease activity of Ref-1,Ref-1 [4],not inhibited
same,protein bands not observed in reference control (specific binding),[5],specifically binding to E3330
same,protein band not observed in reference control (specific binding),"[6]; P.5 fraction, 1 M KCl eluate, SDS-PAGE silver staining",specifically binding to E3330
same,yield of the about 38 kDa protein in competitive binding-inhibitory experiment,[6]; free E3330 at the same moles as immobilized NH2-E3330,lowered
same,solubility in water,Solubility in water,insoluble in water
same,binding of recombinant Ref-1 to immobilized drug,[7],specifically bound to E3330
same,binding in Far Western method,Ref-1 [8],bound to Ref-1
CNC(=O)c1cccc(NCC(=O)NCCc2ccc(OC)c(OC)c2)c1 [DQ2511],protein obtained from immobilized particles (binding ability),[9],possessing DQ2511-binding ability
same,protein band not observed in reference control (specific binding),[10],specifically binding to DQ2511
CNCCNS(=O)(=O)c1cccc2cnccc12 [H-8],elution of the 30 kDa protein from H-9-immobilized particles by free drug,[11],same protein band was obtained
same,yield of the 30 kDa protein in competition experiment,[11],lower yield
NCCNS(=O)(=O)c1cccc2cnccc12 [H-9],protein band not observed in reference control (specific binding),"[11]; HeLa nuclear extract, SDS-PAGE silver staining",specifically binding to H-9
same,elution of the 30 kDa protein from H-9-immobilized particles by free drug,[11],same protein band was obtained
same,yield of the 30 kDa protein in competition experiment,[11],lower yield
